In patent publication US20180179177A1, “N-ACYLIMINO HETEROCYCLIC COMPOUNDS FOR CONTROLLING INVERTEBRATE PESTS” (BASF SE, priority 2014, published 2018):

Key:
Assay type in all cases: in vivo
[1] = tested on: Mediterranean fruitfly (Ceratitis capitata); assay: Mediterranean fruitfly control, insect diet in microtiter plates; conditions: 120 h, egg and larval mortality after 5 days, read-out: mortality in comparison with untreated controls
Experimental: B.2 Mediterranean Fruitfly (Ceratitis capitata)
For evaluating control of Mediterranean fruitfly (Ceratitis capitata) the test unit consisted of microtiter plates containing an insect diet and 50-80 C. capitata eggs. The compounds were formulated using a solution containing 75% v/v water and 25% v/v DMSO. Different concentrations of formulated compounds were sprayed onto the insect diet at 5 μl, using a custom built micro atomizer, at two replications.
After application, microtiter plates were incubated at about 28±1° C. and about 80±5% relative humidity for 5 days. Egg and larval mortality was then visually assessed.

[2] = tested on: vetch aphid (Megoura viciae); assay: Vetch aphid control, contact or systemic, broad bean leaf disks; conditions: foliar, 120 h, aphid mortality after 5 days, read-out: mortality in comparison with untreated controls
Experimental: B.3 Vetch Aphid (Megoura viciae)
For evaluating control of vetch aphid (Megoura viciae) through contact or systemic means the test unit consisted of 24-well-microtiter plates containing broad bean leaf disks.
The compounds were formulated using a solution containing 75% v/v water and 25% v/v DMSO. Different concentrations of formulated compounds were sprayed onto the leaf disks at 2.5 μl, using a custom built micro atomizer, at two replications.
After application, the leaf disks were air-dried and 5-8 adult aphids were placed on the leaf disks inside the microtiter plate wells. The aphids were then allowed to suck on the treated leaf disks and were incubated at about 23±10C and about 50±5% relative humidity for 5 days. Aphid mortality and fecundity was then visually assessed.

[3] = tested on: green peach aphid (Myzus persicae); assay: Green peach aphid control, systemic, artificial diet under membrane; conditions: 72 h, aphid mortality after 3 days, read-out: mortality in comparison with untreated controls
From the text: B.4 Green Peach Aphid (Myzus persicae)
For evaluating control of green peach aphid (Myzuspersicae) through systemic means, the test unit consists of 96-well-microtiter plates containing liquid artificial diet under an artificial membrane.
The compounds are formulated using a solution containing 75% v/v water and 25% v/v DMSO. Different concentrations of formulated compounds are pipetted into the aphid diet, using a custom built pipetter, at two replications.
After application, 5-8 adult aphids are placed on the artificial membrane inside the microtiter plate wells. The aphids are then allowed to suck on the treated aphid diet and incubated at about 23±10C and about 50±5% relative humidity for 3 days. Aphid mortality and fecundity is then visually assessed.

[4] = tested on: Orchid thrips (Dichromothrips corbetti); assay: Orchid thrips floral-immersion test; conditions: 72 hours after treatment, read-out: mortality in comparison with untreated controls
Experimental: B.5 Orchid Thrips (Dichromothrips Corbetti)
Dichromothrips corbetti adults used for bioassay are obtained from a colony maintained continuously under laboratory conditions. For testing purposes, the test compound is diluted in a 1:1 mixture of acetone:water (vol:vol), plus 0.01% vol/vol Alkamuls® EL 620 surfactant.
Thrips potency of each compound is evaluated by using a floral-immersion technique. Plastic petri dishes are used as test arenas. All petals of individual, intact orchid flowers are dipped into treatment solution and allowed to dry. Treated flowers are placed into individual petri dishes along with about 20 adult thrips. The petri dishes are then covered with lids. All test arenas are held under continuous light and a temperature of about 28° C. for duration of the assay. After 3 days, the numbers of live thrips are counted on each flower, and along inner walls of each petri dish. The percent mortality is recorded 72 hours after treatment.

[5] = tested on: Cowpea aphid (Aphis craccivora); assay: Cowpea aphid test, sprayed potted cowpea plants; conditions: after 72 hours, read-out: mortality in comparison with untreated controls
Experimental: B.6 Cowpea Aphid (Aphis craccivora)
(§1) The active compound is dissolved at the desired concentration in a mixture of 1:1 (vol:vol) distilled water:acetone. Surfactant (Alkamuls® EL 620) is added at a rate of 0.1% (vol/vol). The test solution is prepared at the day of use.
Potted cowpea plants are colonized with approximately 50-100 aphids of various stages by manually transferring a leaf tissue cut from infested plant 24 hours before application. Plants are sprayed after the pest population has been recorded. Treated plants are maintained on light carts at about 28° C. Percent mortality is assessed after 72 hours.

[6] = tested on: Rice green leafhopper (Nephotettix virescens); assay: Rice green leafhopper test, sprayed rice seedlings; conditions: after 72 hours, read-out: mortality in comparison with untreated controls
Experimental: B.7 Rice Green Leafhopper (Nephotettix virescens)
(§2) Rice seedlings are cleaned and washed 24 hours before spraying. The active compounds are formulated in 50:50 acetone:water (vol:vol), and 0.1% vol/vol surfactant (EL 620) is added. Potted rice seedlings are sprayed with 5 ml test solution, air dried, placed in cages and inoculated with 10 adults. Treated rice plants are kept at about 28-29° C. and relative humidity of about 50-60%. Percent mortality is recorded after 72 hours.

[7] = tested on: Cotton aphid (Aphis gossypih); assay: Cotton aphid test, sprayed potted plants; conditions: after 72 hours, read-out: mortality in comparison with untreated controls
Experimental: B.11 Cotton Aphid (Aphis gossypih)
as §1
Potted cowpea plants were colonized with approximately 50-100 aphids of various stages by manually transferring a leaf tissue cut from infested plant 24 hours before application. Plants were sprayed after the pest population has been recorded. Treated plants are maintained on light carts at about 28° C. Percent mortality was assessed after 72 hours.

[8] = tested on: Silverleaf whitefly (Bemisia argentifolii); assay: Silverleaf whitefly test, sprayed cotton plants; conditions: 72 h, 3 days after treatment, adults, read-out: mortality in comparison with untreated controls
From the text: B.12 Silverleaf Whitefly (Bemisia argentifolii)
(§3) The active compounds are formulated in cyclohexanone as a 10,000 ppm solution supplied in tubes. The tubes are inserted into an automated electrostatic sprayer equipped with an atomizing nozzle and they serve as stock solutions for which lower dilutions are made in 50% acetone:50% water (v/v). A nonionic surfactant (Kinetic®) is included in the solution at a volume of 0.01% (v/v).
Cotton plants at the cotyledon stage (one plant per pot) are sprayed by an automated electrostatic plant sprayer equipped with an atomizing spray nozzle. The plants are dried in the sprayer fume hood and then removed from the sprayer. Each pot is placed into a plastic cup and about 10 to 12 whitefly adults (approximately 3-5 days old) are introduced. The insects are collected using an aspirator and a nontoxic Tygon® tubing connected to a barrier pipette tip. The tip, containing the collected insects, is then gently inserted into the soil containing the treated plant, allowing insects to crawl out of the tip to reach the foliage for feeding. Cups are covered with a reusable screened lid. […] Mortality is assessed 3 days after treatment, compared to untreated control plants.

[9] = tested on: boll weevil (Anthonomus grandis); assay: Boll weevil control, insect diet in 96-well microtiter plates; conditions: 120 h, egg and larval mortality after 5 days, read-out: mortality in comparison with untreated controls
Experimental: B.1 Boll Weevil (Anthonomus grandis)
For evaluating control of boll weevil (Anthonomus grandis) the test unit consisted of 96-well-microtiter plates containing an insect diet and 5-10 A. grandis eggs.
The compounds were formulated using a solution containing 75% v/v water and 25% v/v DMSO. Different concentrations of formulated compounds were sprayed onto the insect diet at 5 μl, using a custom built micro atomizer, at two replications.
After application, microtiter plates were incubated at about 25±10C and about 75±5% relative humidity for 5 days. Egg and larval mortality was then visually assessed.

[10] = tested on: Green soldier stink bug (Nezara viridula); assay: Green soldier stink bug test, sprayed soybean pods; conditions: 120 h, after 5 days, 3rd instar, read-out: mortality in comparison with untreated controls
Experimental: B.8 Green Soldier Stink Bug (Nezara viridula)
The active compound is dissolved at the desired concentration in a mixture of 1:1 (vol:vol) distilled water:aceteone. Surfactant (Kinetic HV) is added at a rate of 0.01% (vol/vol). The test solution is prepared at the day of use.
Soybean pods were placed in microwavable plastic cups lined with moist filter paper and inoculated with ten 3rd instar N. viridula. Using a hand atomizer, approximately 2 ml solution is sprayed into each cup. Treated cups were kept at about 28-29° C. and relative humidity of about 50-60%. Percent mortality was recorded after 5 days.

[11] = tested on: Rice brown plant hopper (Nilaparvata lugens); assay: Rice brown plant hopper test, sprayed rice seedlings; conditions: after 72 hours, read-out: mortality in comparison with untreated controls
Experimental: B.9 Rice Brown Plant Hopper (Nilaparvata lugens)
as §2, with “compounds is” for “compounds are”, “acetone:water (vol:vol)” for “acetone:water (vol:vol),”, “620) was” for “620) is”

[12] = tested on: Diamond back moth (Plutella xylostella); assay: Diamond back moth test, dipped cabbage leaves; conditions: 72 hours after treatment, 3rd instar larvae, read-out: mortality in comparison with untreated controls
Experimental: B.10 Diamond Back Moth (Plutella xylostella)
The active compound is dissolved at the desired concentration in a mixture of 1:1 (vol:vol) distilled water:aceteone. Surfactant (Alkamuls® EL 620) is added at a rate of 0.1% (vol/vol). The test solution is prepared at the day of use.
Leaves of cabbage were dipped in test solution and air-dried. Treated leaves were placed in petri dish eslined with moist filter paper and inoculated with ten 3rd instar larvae. Mortality was recorded 72 hours after treatment. Feeding damages were also recorded using a scale of 0-100%.

[13] = tested on: Southern armyworm (Spodoptera eridania); assay: Southern armyworm test, sprayed lima bean plants; conditions: 96 h, 4 days after treatment, larvae, read-out: mortality in comparison with untreated controls
Experimental: B.13 Southern Armyworm (Spodoptera eridania)
as §3, with “were” for “are”, “served” for “serve”, “was” for “is”
Lima bean plants (variety Sieva) were grown 2 plants to a pot and selected for treatment at the 1st true leaf stage. Test solutions were sprayed onto the foliage by an automated electrostatic plant sprayer equipped with an atomizing spray nozzle. The plants were dried in the sprayer fume hood and then removed from the sprayer. Each pot was placed into perforated plastic bags with a zip closure. About 10 to 11 armyworm larvae were placed into the bag and the bags zipped closed. Test plants were maintained in a growth room at about 250C and about 20-40% relative humidity for 4 days, avoiding direct exposure to fluorescent light (24 hour photoperiod) to prevent trapping of heat inside the bags. Mortality and reduced feeding were assessed 4 days after treatment, compared to untreated control plants.

| SMILES | mortality at 2500 ppm [1] [%] | mortality at 2500 ppm [2] [%] | mortality at 2500 ppm [3] [%] | mortality at 500 ppm [4] [%] | mortality at 500 ppm [5] [%] | mortality at 500 ppm [6] [%] | mortality at 500 ppm [7] [%] | mortality at 500 ppm [8] [%] | mortality at 2500 ppm [9] [%] | mortality at 500 ppm [10] [%] | mortality at 500 ppm [11] [%] | mortality at 500 ppm [12] [%] | mortality at 500 ppm [13] [%] |
| --- | --- | --- | --- | --- | --- | --- | --- | --- | --- | --- | --- | --- | --- |
| CC(C)/C=C(/C(=O)/N=c1\ccccn1Cc1ccc(Cl)nc1)[N+](=O)[O-] [Compound E3.1] | ≥ 75 | ≥ 75 | ≥ 75 | ≥ 75 | ≥ 75 | ≥ 75 | > 75 | ≥ 75 |  |  |  |  |  |
| O=C(C[N+](=O)[O-])/N=c1\ccccn1Cc1ccc(Cl)nc1 [Compound E1.4] | ≥ 75 | ≥ 75 | ≥ 75 | ≥ 75 | ≥ 75 | ≥ 75 | > 75 | ≥ 75 | ≥ 75 | > 75 | ≥ 75 | > 75 | ≥ 75 |
| O=C(/N=c1\ccccn1Cc1ccc(Cl)nc1)C1([N+](=O)[O-])CC1c1ccccc1 (stereo not drawn) [Compound E2.3] |  | ≥ 75 | ≥ 75 |  | ≥ 75 |  |  |  |  |  |  |  |  |
